Entries after “also recorded” stand apart in the source; their conditions may differ.
Experiments:
AimR^Kat = biological target: T1, AimR^Kat (Bacillus subtilis (Katmira prophage), UniProt A0A8I3AZZ2); assay type: binding, Katmira phage; settings: for Tm: Supplementary Fig. 5a, peptides at 0.5mM; for effect on Tm / stabilisation (in words): ThermoFluor
T1 sequence (A0A8I3AZZ2 2-387): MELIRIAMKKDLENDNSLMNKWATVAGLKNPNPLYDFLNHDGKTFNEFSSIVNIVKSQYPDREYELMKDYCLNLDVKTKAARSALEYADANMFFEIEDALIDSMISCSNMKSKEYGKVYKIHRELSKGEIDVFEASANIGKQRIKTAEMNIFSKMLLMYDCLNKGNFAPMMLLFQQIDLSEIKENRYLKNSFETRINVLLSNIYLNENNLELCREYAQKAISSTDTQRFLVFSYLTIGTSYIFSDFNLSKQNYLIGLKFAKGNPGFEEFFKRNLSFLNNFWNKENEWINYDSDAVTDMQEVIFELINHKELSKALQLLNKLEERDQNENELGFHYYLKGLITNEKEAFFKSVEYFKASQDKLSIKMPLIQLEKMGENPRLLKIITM
Procedure: The thermal shift assay was conducted in a 7500 Fast Real time PCR System (Applied Biosystems) as previously described. Briefly, samples of 20 μl buffer (20 mM Tris pH 8 and 250 mM NaCl) containing 5× Sypro Orange (Sigma-Aldrich) and 20 μM of protein were loaded in 96-well PCR plates. […] Samples were heated from 25 to 85 °C in steps of one degree. Fluorescent intensity was plotted versus temperature and integrated with GraphPad Prism software using a Boltzmann model to calculate melting temperatures.

AimR^Kat-N273A [1] = biological target: T2, AimR^Kat-N273A (Bacillus subtilis, UniProt A0A8I3AZZ2, N274A); test: Thermal shift assay of AimR^Kat-N273A with peptides; assay type: binding, Katmira phage; settings: ThermoFluor
Procedure: The thermal shift assay was conducted in a 7500 Fast Real time PCR System (Applied Biosystems) as previously described. Briefly, samples of 20 μl buffer (20 mM Tris pH 8 and 250 mM NaCl) containing 5× Sypro Orange (Sigma-Aldrich) and 20 μM of protein were loaded in 96-well PCR plates. To calculate the Tm in the presence of the peptide, 0.5 μM of GMPRGA or GIVRGA peptide was added to the mixture. Samples were heated from 25 to 85 °C in steps of one degree. Fluorescent intensity was plotted versus temperature and integrated with GraphPad Prism software using a Boltzmann model to calculate melting temperatures.

AimR^Kat-DNA interaction = test: EMSA, peptide-induced release of AimR^Kat from its DNA operator; assay type: biochemical, Katmira phage; settings: protein preincubated with 0.5 μM peptide 10 min, repeated three times
Procedure: (§1) AimR binding to its operator and the inhibition induced by the arbitrium peptide was analysed by native polyacrylamide and agarose gel electrophoresis. Double strand DNA primer probes were purchased from Macrogen. DNA (10 ng µl^−1) and AimR (from 0.5 μM) protein was mixed in EMSA buffer (50 mM tris pH8, 250 mM NaCl). The samples were incubated for 10 min at room temperature. For peptide inhibition assay, protein was preincubated with 0.5 μM peptide for 10 min before DNA addition. Electrophoresis was then performed in 8% polyacrylamide gels in Tris-Borate-EDTA (TBE) buffer for about 150 min at 100 V at 4 °C.

[2] = test system: AimR^Kat-N273A-DNA interaction; test: EMSA, peptide-induced release of AimR^Kat-N273A from its target DNA; assay type: biochemical, Katmira phage; settings: protein preincubated with 0.5 μM peptide 10 min, repeated three times
Procedure: as §1

[3] = test system: SPβ ΔaimR prophage complemented with AimR^SPβ; test: Prophage induction and phage titering, SPβ ΔaimR complemented with AimR^SPβ; assay type: cell-based, phage SPβ in B. subtilis; settings: for phage titer: JP 20223, 5 μM peptide, MC induced
Procedure: For induction, an overnight culture was diluted 1/100 in LB media supplemented with 0.1 mM MnCl2 and 5 mM MgCl2 and then grown at 37 °C with 210 rpm shaking until reaching absorbance 0.2 at 600 nm. This step was repeated twice to ensure the cells were in exponential growth. After the second growth, Mitomycin C (MC) at 0.5 μg ml^−1 was added to the culture. Where experiments were performed to test the effect of peptide on phage titre, 5 μM of the relevant peptide was added before starting the second growth to ensure the bacteria cells were able to incorporate the peptide. The induced cultures were incubated at 30 °C with 80 rpm shaking for 4 h and then left overnight at room temperature. Following lysis, samples were filtered using 0.2 μm filters and lysates were stored at 4 °C until use.
The number of phage particles contained in the phage lysate of interest was quantified by a titering assay. An overnight culture of the relevant recipient strain (normally B. subtilis ∆6 or with the corresponding plasmid) was diluted 1/100 in LB supplemented with 0.1 mM MnCl2 and 5 mM MgCl2 and then grown at 37 °C with 210 rpm shaking until reaching absorbance 0.2 at 600 nm. When required 1 mM IPTG was added. Then, 100 μl of recipient bacteria was infected with 100 μl of serial dilutions of phage lysate in phage buffer (PhB; 1 mM NaCl, 0.05 M Tris pH 7.8, 0.1 mM MnCl2, 5 mM MgCl2) at room temperature for 10 min and 3 ml of phage top agar (LB media supplemented with 0.1 mM MnCl2 and 5 mM MgCl2 and 0.7 % agar) at 55 °C was added to the culture-phage mix and immediately poured over phage base agar plates (LB media supplemented with 0.1 mM MnCl2 and 5 mM MgCl2 and 1.5% agar). Plaques were counted after overnight growth at 37 °C temperature and photographed.

AimR^SPβ = settings: previously reported; cited from earlier work
AimR^Kat-N273A [4] = biological target: T2, AimR^Kat-N273A; test: ITC, AimP binding to AimR^Kat-N273A; set-up: species or system Katmira phage; settings: 25 °C, 25 mM Tris-HCl pH 8, 250 mM NaCl
Procedure: ITC assays were carried out in a Nano ITC Low Volume (TA instruments). In the assays, proteins (AimR^Kat or AimR^Kat-N273A) and peptides concentration were 10 and 50 μM, respectively, and both were diluted in buffer 25 mM Tris-HCl pH 8, 250 mM NaCl. The experiments were performed at 25 °C. The data obtained was integrated, corrected and analysed using the NanoAnalyze software (TA Instruments) with a single-site or two-site binding models.

With GMPRGA [AimP^SPβ, the SPβ AimP peptide] the Tm (AimR^Kat) was 43 ºC, the “effect on Tm / stabilisation (in words)” value (AimR^Kat) was “did not have any effect” and the “stabilisation / binding capacity (in words)” value (AimR^Kat-N273A [1]) was “stabilises AimR^Kat-N273A”. The “release of AimR^Kat from DNA” value (AimR^Kat-DNA interaction) was “only AimP^Kat for the wt form”, the “release of AimR^Kat from DNA” value (AimR^Kat-DNA interaction; listed as GMPRGA) was “neither GMPRGA (AimP^SPβ) nor SAIRGA (the phi3T AimP peptide, AimP^Phi) (Fig. 1b) affected AimR^Kat in its ability to recognise its cognate DNA box” and the “release of AimR^Kat-N273A from DNA” value [2] was “induce DNA releases for the N273A mutant form of AimR^Kat; also recorded: able to induce the release of AimR^Kat-N273A from its target DNA”. It also gave a phage titer ([3]; repeat 1) of 7.90E+08 pfu/ml, a phage titer ([3]; repeat 2) of 9.60E+07 pfu/ml and a phage titer ([3]; repeat 3) of 2.12E+09 pfu/ml. The phage titer ([3]; repeat 4) was 6.30E+07 pfu/ml, the phage titer ([3]; repeat 5) was 8.90E+07 pfu/ml and the phage titer ([3]; repeat 6) was 2.90E+08 pfu/ml. The phage titer ([3]; repeat 7) was 7.80E+07 pfu/ml, the “reduction of phage titre” value ([3]; MC 0.5 μg/ml, 5 μM peptide, compared with no peptide) was 10 times and the “increase of Tm” value (AimR^SPβ) was 10 °C.
For “SAIRGA [AimP^Phi, the phi3T AimP peptide]”, the “binding by ITC (in words)” value (AimR^Kat-N273A [4]) was “unable to bind”, the Tm (AimR^Kat) was 43 ºC and the “effect on Tm / stabilisation (in words)” value (AimR^Kat) was “did not have any effect”. The “release of AimR^Kat from DNA” value (AimR^Kat-DNA interaction) was “insensitive”, the “release of AimR^Kat from DNA” value (AimR^Kat-DNA interaction; listed as SAIRGA) was “neither GMPRGA (AimP^SPβ) nor SAIRGA (the phi3T AimP peptide, AimP^Phi) (Fig. 1b) affected AimR^Kat in its ability to recognise its cognate DNA box” and the “release of AimR^Kat-N273A from DNA” value [2] was “insensitive”.

Source: article PMC9232636, “Insights into the mechanism of action of the arbitrium communication system in SPbeta phages” (Nature Communications, 2022)
